The target of assay [1] is T1, KRAS-WT and SOS1 proteins (Homo sapiens, UniProt Q07889).
T1 construct: purchased Cisbio 63ADK000CB15PEG
T1 sequence (Q07889 1-1333): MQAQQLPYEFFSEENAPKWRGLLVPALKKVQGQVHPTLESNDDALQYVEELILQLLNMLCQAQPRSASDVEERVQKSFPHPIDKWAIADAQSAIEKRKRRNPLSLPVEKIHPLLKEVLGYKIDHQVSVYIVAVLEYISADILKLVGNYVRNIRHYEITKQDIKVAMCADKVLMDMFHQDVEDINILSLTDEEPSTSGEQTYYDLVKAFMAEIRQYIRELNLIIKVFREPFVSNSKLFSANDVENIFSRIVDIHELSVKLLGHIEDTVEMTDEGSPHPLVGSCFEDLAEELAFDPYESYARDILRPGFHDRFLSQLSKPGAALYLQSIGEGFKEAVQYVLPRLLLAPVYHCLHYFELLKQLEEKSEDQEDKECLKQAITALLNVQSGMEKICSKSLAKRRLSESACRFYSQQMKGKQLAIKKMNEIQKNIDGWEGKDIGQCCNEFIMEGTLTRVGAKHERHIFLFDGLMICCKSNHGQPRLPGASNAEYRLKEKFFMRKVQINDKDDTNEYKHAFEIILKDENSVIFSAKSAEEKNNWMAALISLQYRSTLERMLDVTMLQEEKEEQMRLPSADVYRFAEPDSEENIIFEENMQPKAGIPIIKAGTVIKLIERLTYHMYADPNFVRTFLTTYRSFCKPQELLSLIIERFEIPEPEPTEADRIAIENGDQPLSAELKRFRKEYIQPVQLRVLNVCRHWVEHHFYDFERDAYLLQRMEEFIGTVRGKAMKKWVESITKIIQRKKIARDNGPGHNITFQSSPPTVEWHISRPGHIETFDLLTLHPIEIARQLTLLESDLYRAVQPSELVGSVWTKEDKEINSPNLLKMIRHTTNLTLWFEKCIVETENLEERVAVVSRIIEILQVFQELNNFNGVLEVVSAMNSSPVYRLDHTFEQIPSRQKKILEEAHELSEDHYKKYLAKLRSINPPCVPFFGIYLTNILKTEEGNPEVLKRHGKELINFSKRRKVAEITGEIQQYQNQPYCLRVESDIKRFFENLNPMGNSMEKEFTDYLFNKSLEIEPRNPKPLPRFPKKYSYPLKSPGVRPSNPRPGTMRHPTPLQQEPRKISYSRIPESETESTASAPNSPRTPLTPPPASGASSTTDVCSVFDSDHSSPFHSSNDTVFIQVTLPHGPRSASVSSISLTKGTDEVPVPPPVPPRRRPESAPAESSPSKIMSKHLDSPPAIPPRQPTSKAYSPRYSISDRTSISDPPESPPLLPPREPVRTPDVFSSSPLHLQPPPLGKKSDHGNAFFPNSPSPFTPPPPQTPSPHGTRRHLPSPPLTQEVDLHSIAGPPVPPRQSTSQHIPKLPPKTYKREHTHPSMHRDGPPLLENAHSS
The assay is described as follows: KRAS-WT/SOS1 binding assay (HTRF). The settings on record: Tag1-SOS1 / Tag2-KRAS-WT, 10 μM GTP, read-out: Activity Data in Kras: SOS1 Assay, Wild Type. As to the method: (§1) KRAS-WT (or G12C/G12D/G12V)/SOS1 Binding Assay
(§2) Low IC50 values are indicative of high potency of the SOS1 inhibitor compounds in this assay setting.
(§3) The KRAS-WT (or G12C/G12D/G12V)/SOS1 binding assay is performed using an assay kit (Cisbio, Cat #63ADK000CB15PEG or 63ADK000CB16PEG/63ADK000CB17PEG/63ADK000CB18PEG) according to the procedure recommended by the manufacturer. • 1) Thaw and prepare the working solution of Tag1-SOS1 protein and Tag2-KRAS-WT (or G12C/G12D/G12V) protein with final concentration of 10 μM GTP (Sigma, Cat #V900868). • 2) Thaw and prepare the working solution of anti-Tag1-Tb^3+ anti-Tag2-XL665. • 3) Dispense 2 μL of serially diluted compound, 4 μL of Tag1-SOS1 protein and 4 μL of Tag2-KRAS-WT (or G12C/G12D/G12V) protein with GTP into a ProxiPlate-384 Plus, white 384-shallow well microplate (PerkinElmer, Cat #6008280). • 4) Incubate the plate for 15 minutes at room temperature. • 5) Dispense 10 μL of pre-mixed anti-Tag1-Tb^3+ and anti-Tag2-XL665 into the plate. • 6) Seal the plate and incubate for 2 hours at room temperature. • 7) Remove the plate sealer and read on PHERAstar FS (BMG LABTECH, PHERAstar FS). • 8) Calculate the ratio of the acceptor and donor emission signals for each individual well using the following equation.
(§4) [formula] • 9) IC50 values are fitted and calculated by HTRF signal values and log of compound concentrations to nonlinear regression [Log (inhibitor) vs. Response−Variable Slope (four parameters)] using the GraphPad Prism 8.0.
(Time-resolved FRET reads energy transfer from a long-lived donor to a nearby acceptor.)

Assay [2] has as its target T2, KRAS G12D and SOS1 proteins (Homo sapiens, UniProt Q07889).
T2 construct: purchased Cisbio 63ADK000CB17PEG
T2 sequence (Q07889 1-1333): T1 sequence (Q07889 1-1333)
As to the kind of experiment: KRAS-G12D/SOS1 binding assay (HTRF). Particulars: Tag1-SOS1 / Tag2-KRAS G12D, 10 μM GTP. The method, then: as §1, §2, §3, §4

For the compound `C[C@@H](Nc1nc2ccnn2c2cc(=O)n(C3(C)CC3)cc12)c1cccc2c1CCC2(F)F` [Example 62, (R)-5-((1-(1,1-difluoro-2,3-dihydro-1H-inden-4-yl)ethyl)amino)-7-(1-methylcyclopropyl)pyrazolo[1,5-a]pyrido[3,4-e]pyrimidin-8(7H)-one], the IC50 in assay [1] and in assay [2] was less than 100 nM each time.

For the compound `C[C@@H](Nc1nc2ccnn2c2cc(=O)n([C@H]3CCOC3)cc12)c1cccc(C(F)(F)CO)c1` [Example 72, 5-(((R)-1-(3-(1,1-difluoro-2-hydroxyethyl)phenyl)ethyl)amino)-7-((S)-tetrahydrofuran-3-yl)pyrazolo[1,5-a]pyrido[3,4-e]pyrimidin-8(7H)-one], the IC50 in assay [1] and in assay [2] was less than 100 nM in each case.

In the case of `CC(=O)N1CCC(n2cc3c(N[C@H](C)c4cccc(C(F)(F)CO)c4)nc4ccnn4c3cc2=O)CC1` [Example 75, 11-(1-acetylpiperidin-4-yl)-8-{[(1R)-1-[3-(1,1-difluoro-2-hydroxyethyl)phenyl]ethyl]amino}-2,3,7,11-tetraazatricyclo[7.4.0.0^{2,6}]trideca-1(13),3,5,7,9-pentaen-12-one], the IC50 in assay [1] and in assay [2] was less than 100 nM in each case.

For the compound `Cc1nc(N[C@H](C)c2cccc(C(F)(F)CO)c2)c2cc(O[C@H]3CCOC3)c3c(cnn3C)c2n1` [Example 38, 2-(3-((R)-1-((2,7-dimethyl-6-(((S)-tetrahydrofuran-3-yl)oxy)-7H-pyrazolo[3,4-h]quinazolin-4-yl)amino)ethyl)phenyl)-2,2-difluoroethan-1-ol], the IC50 in assay [1] and in assay [2] was less than 100 nM throughout.

As for `C[C@@H](Nc1nc2ccnn2c2cc(=O)n(C3(C)CC3)cc12)c1cccc(C(C)(F)F)c1F` [Example 64, (R)-5-((1-(3-(1,1-difluoroethyl)-2-fluorophenyl)ethyl)amino)-7-(1-methylcyclopropyl)pyrazolo[1,5-a]pyrido[3,4-e]pyrimidin-8(7H)-one], the IC50 in assay [1] and in assay [2] was less than 100 nM each time.

With `Cc1nc(N[C@H](C)c2cccc(C(F)(F)CO)c2)c2cc(C3CCN(C)CC3)c3c(cnn3C)c2n1` [Example 30, (R)-2-(3-(1-((2,7-dimethyl-6-(1-methylpiperidin-4-y1)-7H-pyrazolo[3,4-h]quinazolin-4-yl)amino)ethyl)phenyl)-2,2-difluoroethan-1-ol], the IC50 in assay [1] and in assay [2] was less than 100 nM throughout.

As for `Cc1nc(N[C@H](C)c2cccc3c2CCC3(F)F)c2cc(O[C@H]3CCOC3)c3nncn3c2n1` [Example 19, N-((R)-1-(1,1-difluoro-2,3-dihydro-1H-inden-4-yl)ethyl)-2-methyl-6-(((S)-tetrahydrofuran-3-yl)oxy)-[1,2,4]triazolo[4′,3′:1,6]pyrido[2,3-d]pyrimidin-4-amine], the IC50 in assay [1] and in assay [2] was less than 100 nM throughout.

As for `Cc1nc(N[C@H](C)c2cc(C(C)(C)O)cc(C(F)(F)F)c2)c2cc(-c3ccc(=O)n(C)c3)c3c(cnn3C)c2n1` [Example 26, (R)-5-(4-((1-(3-(2-hydroxypropan-2-yl)-5-(trifluoromethyl)phenyl)ethyl)amino)-2,7-dimethyl-7H-pyrazolo[3,4-h]quinazolin-6-yl)-1-methylpyridin-2(1H)-one], the IC50 in assay [1] and in assay [2] was more than 5000 nM throughout.

On to `CC(=O)N1CC[C@H](Oc2cc3c(N[C@H](C)c4cccc5c4CCC5(F)F)nc(C)nc3n3cnnc23)C1` [Example 21, 1-((S)-3-((4-(((R)-1-(1,1-difluoro-2,3-dihydro-1H-inden-4-yl)ethyl)amino)-2-methyl-[1,2,4]triazolo[4′,3′:1,6]pyrido[2,3-d]pyrimidin-6-yl)oxy)pyrrolidin-1-yl)ethan-1-one], for which the IC50 in assay [1] and in assay [2] was less than 100 nM throughout.

Regarding `Cc1nc(N[C@H](C)c2cccc(C(F)(F)CO)c2)c2cc(-c3ccc(=O)[nH]c3)c3c(cnn3C)c2n1` [Example 29, (R)-5-(4-((1-(3-(1,1-difluoro-2-hydroxyethyl)phenyl)ethyl)amino)-2,7-dimethyl-7H-pyrazolo[3,4-h]quinazolin-6-yl)pyridin-2(1H)-one], the IC50 in assay [1] and in assay [2] was less than 100 nM throughout.

For the compound `C[C@@H](Nc1nc2ccnn2c2cc(=O)n(C3CC(F)(F)C3)cc12)c1cccc(C(F)(F)CO)c1` [Example 66, (R)-5-((1-(3-(1,1-difluoro-2-hydroxyethyl)phenyl)ethyl)amino)-7-(3,3-difluorocyclobutyl)pyrazolo[1,5-a]pyrido[3,4-e]pyrimidin-8(7H)-one], the IC50 in assay [1] and in assay [2] was less than 100 nM in each case.

For the compound `Cc1nc(N[C@H](C)c2cc(N)cc(C(F)(F)F)c2)c2cc(O[C@H]3CCOC3)c3nncn3c2n1` [Example 18, N-[(1R)-1-[3-amino-5-(trifluoromethyl)phenyl]ethyl]-12-methyl-7-(oxolan-3-yloxy)-2,4,5,11,13-pentaazatricyclo[7.4.0.0^{2,6}]trideca-1(9),3,5,7,10,12-hexaen-10-amine], the IC50 in assay [1] and in assay [2] was less than 100 nM throughout.

As for `C[C@@H](Nc1nc2ccnn2c2cc(=O)n(C3(C(F)F)CC3)cc12)c1cccc(C(F)(F)CO)c1` [Example 68, (R)-5-((1-(3-(1,1-difluoro-2-hydroxyethyl)phenyl)ethyl)amino)-7-(1-(difluoromethyl)cyclopropyl)pyrazolo[1,5-a]pyrido[3,4-e]pyrimidin-8(7H)-one], the IC50 in assay [1] and in assay [2] was less than 100 nM throughout.

In the case of `Cc1nc(N[C@H](C)c2cccc(C(F)(F)CO)c2)c2cc(-c3ccc(=O)[nH]c3)c3[nH]ncc3c2n1` [Example 28, (R)-5-(4-((1-(3-(1,1-difluoro-2-hydroxyethyl)phenyl)ethyl)amino)-2-methyl-7H-pyrazolo[3,4-h]quinazolin-6-yl)pyridin-2(1H)-one], the IC50 in assay [1] and in assay [2] was less than 100 nM in each case.

On to `Cc1nc(N[C@H](C)c2cccc3c2CCC3(F)F)c2cc(C3CCN(S(C)(=O)=O)CC3)c3nncn3c2n1` [Example 8, (R)-N-(1-(1,1-difluoro-2,3-dihydro-1H-inden-4-yl)ethyl)-2-methyl-6-(1-(methylsulfonyl)piperidin-4-yl)-[1,2,4]triazolo[4′,3′:1,6]pyrido[2,3-d]pyrimidin-4-amine], for which the IC50 in assay [1] and in assay [2] was less than 100 nM each time.

Turning to `Cc1nc(N[C@H](C)c2cccc(C(F)(F)F)c2)c2cc(OC3CCOC3)c3c(cnn3C)c2n1` (stereo partly drawn) [Example 35, 2,7-dimethyl-6-(oxolan-3-yloxy)-N-[(1R)-1-[3-(trifluoromethyl)phenyl]ethyl]-7H-pyrazolo[3,4-h]quinazolin-4-amine], the IC50 in assay [1] and in assay [2] was 100 to 500 nM each time.

The record behind these values is patent publication US20240109891A1, “NOVEL SUBSTITUTED TRICYCLIC AZA-HETEROCYCLES AS SOS1 INHIBITORS” (Viva Star Biosciences (Suzhou) Co., Ltd., priority 2021, published 2024).
